Results on 1 molecule are retold here after patent US9629869B2, “Application of fructus schisandrae total polysaccharides in preparatoin of medicine or nutraceuticals used for treating coughing” (priority 2014, dated 2017).

Format in all cases: in vivo, guinea pig
Assay [1] deals with citric acid smoke stimulation-caused guinea pigs. The assay can be described thus: Coughing times of citric acid smoke stimulated guinea pigs at different time points after one dose (Embodiment III). Conditions: 5 hours after one oral dose of 30 mg/kg; FIG. 2. The protocol: After the guinea pigs are quietly raised for one week, the cough sensitivity is screened: the guinea pigs are stimulated for one minute by atomizing 0.8 mol/L citric acid and continuously observed for five minutes after the atomizing is stopped; the coughing times of the guinea pigs in 6 minutes after the atomization is started is recorded; and the guinea pigs with the coughing times greater than 10 times and less than 50 times are the qualified guinea pigs.
The qualified guinea pigs are selected to be normally raised for three days and randomly divided into four groups with 30 guinea pigs in each group. The guinea pigs in the first group are divided into three subgroups with 10 guinea pigs in each subgroup, and all guinea pigs are directly under the citric acid cough stimulation: the guinea pigs are stimulated for one minute by atomizing 0.8 mol/L citric acid and are continuously observed for 5 minutes after the atomization is stopped, and the coughing times of the guinea pigs in 6 minutes after the atomization is started is recorded. […]

For assay [2], the system named is BALF inflammatory cells of guinea pigs with increased cough sensitivity induced by cigarette smoke. The assay can be described thus: Total number and classification of BALF inflammatory cells, cigarette smoke guinea pigs (Embodiment I). Conditions: codeine group 30 mg/kg oral once, n = 7-10. On the procedure: 1.1 Smoking method: prior to the experiment, after being adaptively raised quietly for one week, the guinea pigs are placed in a self-made cigarette poisoning box; ten cigarettes are fired every time and placed in a smoking trough (flume-cured tobacco type, content of tar is 12 mg, content of nicotine in smoke is 1.1 mg, and content of carbon oxide in the smoke is 15 mg); and the cigarette smoke is led into the poisoning box by three-way valve, and the timing is started after the cigarette is burnt out. The guinea pigs are smoked for 20 minutes every time and twice a day; and the smoking interval time between two adjacent smoking is greater than 6 h; and the guinea pigs are consecutively smoked for 14 days.
The guinea pigs are randomly divided into a normal group, a model group, a solvent reference group (0.5% PEG400), a codeine group, a water extract high dose group (dose: 500 mg/kg guinea pig/day: drug concentration: […]), a total polysaccharides high dose group (dose: 500 mg/kg guinea pig/day; drug concentration: 50 mg/mL), a total polysaccharides middle dose group (dose: 250 mg/kg guinea pig/day; drug concentration: 25 mg/mL) and a total polysaccharides low dose group (dose: 125 mg/kg guinea pig/day, drug concentration: 12.5 mg/mL).
Except for the normal group, animals in other groups are respectively stimulated by adopting the smoking method described in the above 1.1. Except for the normal group and the codeine group, the guinea pigs in the other groups are orally given with the corresponding drugs or solvent two hours before the second smoking for 14 consecutive days from the first day of smoking. The guinea pigs of the codeine group is orally administrated (30 mg/kg guinea pig; the codeine concentration: 3 mg/mL) one hour before the citric acid cough sensitivity check. The guinea pigs of the normal group are normally raised without any treatment. The guinea pigs are placed in a plethysmogrophy box at the 15th day; two minutes later, 0.4 mol/L citric acid aqueous solution is atomized to perform the cough stimulation, and the atomizing is ended in 10 minutes; the guinea pigs are continuously observed for 10 minutes; and the coughing times and coughing latent period of the guinea pigs in 20 minutes after the atomizing is started are recorded.
Intraperitoneal injection with 3% pentobarbital sodium solution (1 mL/kg) is performed to anesthetize the animal in 24 hours after the cough stimulation test, and 10 mL of blood is taken from the heart of the animal. The bronchoalveolar lavage fluid (BALF) is obtained by taking 6 mL of 0.1 mol/L pre-cooled PBS buffer solution, performing the bronchoalveolar lavage for three times, and uniformly lavaging the left lung repeatedly for three times. […]

The subject of assay [3] is acute cough guinea pigs induced by citric acid smoke. The assay can be described thus: Acute cough of guinea pigs induced by citric acid smoke, five days of dosing (Embodiment II). Conditions: 30 mg/kg oral once, one hour before stimulation at fifth day, x ± s, n = 8. The protocol: After the guinea pigs are quietly raised for one week, the cough sensitivity screening is carried out: the guinea pigs is stimulated for one minute by atomizing 0.8 mol/L citric acid and continuously observed for five minutes; the coughing times of the guinea pigs in 6 minutes after the atomizing is started is recorded; and the guinea pigs with the coughing times greater than 10 times and less than 50 times are the qualified guinea pigs. […]
Except for the normal group and the codeine group, the guinea pigs in the rest groups are orally given with drugs or solvent consecutively for five days and once a day; and the citric acid cough stimulation is carried out in one hour after the guinea pigs are given with the drug or solvent at the fifth day: the guinea pigs are stimulated for one minute by atomizing 0.8 mol/L citric acid and are continuously observed for 5 minutes after the atomizing is stopped, and the coughing times of the guinea pigs in 6 minutes after the atomizing is started is recorded. […]

The test system of assay [4] is guinea pigs with increased cough sensitivity induced by cigarette smoke. The assay can be described thus: Citric acid cough stimulation of guinea pigs with increased cough sensitivity induced by cigarette smoke (Embodiment I). Conditions: 30 mg/kg oral once, one hour before citric acid check, x ± s, n = 7-10. The protocol:
Experimental animals used in the specific embodiments are ordinary male pure white Hartly guinea pigs each with a weight of 300±50 g which are supplied by the Laboratory Animal Center of Guangdong Province (SCXK (Guang) 2008-0002). The guinea pigs are raised in a relatively clean and quiet environment with constant temperature (23±3° C.) and constant humidity (55±15%); the diurnal cycle is 12:12 h/day; and the guinea pigs are raised in different cages, and every five guinea pigs are raised in one cage and can obtain food and water freely. […]
Except for the normal group, animals in other groups are respectively stimulated by adopting the smoking method described in the above 1.1. […] The guinea pigs are placed in a plethysmogrophy box at the 15th day; two minutes later, 0.4 mol/L citric acid aqueous solution is atomized to perform the cough stimulation, and the atomizing is ended in 10 minutes; the guinea pigs are continuously observed for 10 minutes; and the coughing times and coughing latent period of the guinea pigs in 20 minutes after the atomizing is started are recorded.

Turning to `COc1ccc2c3c1O[C@H]1[C@@H](O)C=C[C@H]4[C@@H](C2)N(C)CC[C@@]341` [Codeine], in assay [1], the “coughing times compared with the normal group” value is given as “no significant difference”. The molecule also had an Eos % in assay [2] (BALF eosinophils, mean) of 4.25%. In assay [2] (BALF lymphocytes, mean), this molecule yielded a Lym % of 3.64%. For the same molecule, in assay [2] (BALF macrophages, mean), the Mac % came out at 43.86%. In assay [2] (BALF neutrophils, mean), this molecule showed a Neu % of 48.10%. Moreover, the “total number of cells * 10^6/mL” value in assay [2] (BALF, x ± s) is 2.13 ± 0.38 10^6/mL. Also, the Coughing times in assay [3] (0.8 mol/L citric acid, 6 min count) is recorded as 3.83 ± 1.94; in assay [4] (0.4 mol/L citric acid, day 15, 20 min count), 37.29 ± 11.64. In addition, the entries for the “Coughing latent period” value in assay [3] and in assay [4] (day 15) were 115.3 ± 20.18 s and 186.14 ± 45.27 s, respectively.
